Laboratory results as given in the NIST ThermoML archive (doi:10.1016/j.jct.2008.05.006).
Where “and” joins values, the source holds several entries; their conditions need not be identical. Identical values can stand only once.

Key:
[1] = Molar enthalpy of transition or fusion; conditions: Crystal 3; DSC
[2] = for vapor or sublimation pressure: Calculated from knudsen effusion weight loss; for Triple point temperature: DTA
[3] = molar heat capacity at constant pressure; conditions: 101.33 kPa, Small sample (50 mg) DSC

O=C1NC(=O)C(=O)N1 [parabanic acid]
Conditions	Molar enthalpy of transition or fusion [kcal/mol]
[1]	0.502

Conditions	molar heat capacity at constant pressure [J/K/mol]	vapor or sublimation pressure
[2], 381.17 K, Crystal 3	–	0.0001133 kPa and 0.0001078 kPa
[2], 383.17 K, Crystal 3	–	0.0001373 kPa and 0.0001334 kPa
[2], 385.18 K, Crystal 3	–	0.0001672 kPa and 0.0001691 kPa and 0.000159 kPa
[2], 387.17 K, Crystal 3	–	0.0001972 kPa [middle of 4 runs]
[2], 389.17 K, Crystal 3	–	0.0002355 kPa and 0.0002336 kPa and 0.0002271 kPa
[2], 391.18 K, Crystal 3	–	0.000285 kPa and 0.000287 kPa
[2], 393.18 K, Crystal 2	–	0.0003353 kPa and 0.0003334 kPa
[2], 395.17 K, Crystal 2	–	0.0004133 kPa and 0.0004042 kPa
[2], 397.16 K, Crystal 2	–	0.0004877 kPa
[2], 397.18 K, Crystal 2	–	0.000484 kPa
[2], 399.17 K, Crystal 2	–	0.0005715 kPa
[2], 401.18 K, Crystal 2	–	0.0006635 kPa
[2], 403.17 K, Crystal 2	–	0.0008169 kPa
[2], 405.2 K, Crystal 2	–	0.0009469 kPa and 0.0009581 kPa
[2], 406.17 K, Crystal 2	–	0.001047 kPa and 0.001039 kPa
[3], 263.15 K, Crystal 3	153.78	–
[3], 265.15 K, Crystal 3	154.68	–
[3], 270.15 K, Crystal 3	157.16	–
[3], 273.15 K, Crystal 3	158.53	–
[3], 275.15 K, Crystal 3	159.48	–
[3], 280.15 K, Crystal 3	161.53	–
[3], 285.15 K, Crystal 3	163.59	–
[3], 290.15 K, Crystal 3	165.7	–
[3], 295.15 K, Crystal 3	167.6	–
[3], 300.15 K, Crystal 3	169.81	–
[3], 305.15 K, Crystal 3	172.08	–
[3], 310.15 K, Crystal 3	174.5	–
[3], 315.15 K, Crystal 3	177.24	–
[3], 320.15 K, Crystal 3	179.33	–
[3], 325.15 K, Crystal 3	180.62	–
[3], 330.15 K, Crystal 3	182.52	–
[3], 335.15 K, Crystal 3	184.84	–
[3], 340.15 K, Crystal 3	187.21	–
[3], 345.15 K, Crystal 3	189.26	–
[3], 350.15 K, Crystal 3	191.69	–
[3], 355.15 K, Crystal 3	193.8	–
[3], 360.15 K, Crystal 3	196.01	–
[3], 365.15 K, Crystal 3	197.59	–
[3], 370.15 K, Crystal 3	200.07	–
[3], 375.15 K, Crystal 3	201.42	–
[3], 380.15 K, Crystal 3	203.59	–
[3], 400.15 K, Crystal 2	211.5	–
[3], 405.15 K, Crystal 2	213.6	–
[3], 410.15 K, Crystal 2	215.93	–
[3], 415.15 K, Crystal 2	216.68	–
[3], 420.15 K, Crystal 2	218.83	–
[3], 425.15 K, Crystal 2	220.28	–
[3], 430.15 K, Crystal 2	222.89	–
[3], 435.15 K, Crystal 2	225.62	–
[3], 440.15 K, Crystal 2	227.43	–
[3], 445.15 K, Crystal 2	229.93	–
[3], 450.15 K, Crystal 2	232.06	–
[3], 455.15 K, Crystal 2	234.43	–
[3], 460.15 K, Crystal 2	236.96	–
[3], 465.15 K, Crystal 2	239.26	–
[3], 470.15 K, Crystal 2	241.31	–
[3], 473.15 K, Crystal 2	243.13	–

[2]
Conditions	Triple point temperature [K]
Crystal 1	520
Crystal 2	509.8
Crystal 3	392.3
